Target: human P2X3 receptor (Homo sapiens (Human), UniProt P56373)
Test: Evaluation of human P2X3 receptor inhibitory activity (Test Example 1)
Type: cell-based
Conditions: C6BU-1 cell transfected with human P2X3 receptor gene, FLIPR 384
Method in brief: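 FLIPR calcium read-out: signal taken as peak fluorescence after ATP addition divided by starting fluorescence, and IC50 calculated from it. Compound added 5 min before 150 nM ATP solution (pre-dispense stock) to Fluo-3-AM-loaded C6BU-1 cells stably transfected with human P2X3; HEPES buffer pH 7.5 with probenecid.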

Chain of human P2X3 receptor (P56373 whole entry): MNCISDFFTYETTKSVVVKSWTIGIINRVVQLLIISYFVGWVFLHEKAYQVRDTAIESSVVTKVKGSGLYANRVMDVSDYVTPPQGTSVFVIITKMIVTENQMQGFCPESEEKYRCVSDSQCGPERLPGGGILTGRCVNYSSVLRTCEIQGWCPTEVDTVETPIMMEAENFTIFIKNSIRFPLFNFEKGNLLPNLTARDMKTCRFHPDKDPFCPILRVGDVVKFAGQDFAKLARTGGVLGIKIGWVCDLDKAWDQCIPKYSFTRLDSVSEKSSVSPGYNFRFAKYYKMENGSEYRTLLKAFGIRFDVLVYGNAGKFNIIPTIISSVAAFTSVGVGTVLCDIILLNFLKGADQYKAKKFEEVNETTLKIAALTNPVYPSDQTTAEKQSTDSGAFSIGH

SMILES	IC50 [nM]
C[C@@H](Cn1c(=O)[nH]/c(=N\c2ccc(Oc3nccnc3Cl)cc2)n(Cc2ccc(Cl)cc2)c1=O)C(=O)O [Compound R-211]	7
C[C@@H](Cn1c(=O)[nH]/c(=N\c2ccc(Oc3cncc(F)c3)c(F)c2)n(Cc2ccc(Cl)cc2)c1=O)C(=O)O [Compound R-117]	6
C[C@@H](Cn1c(=O)[nH]/c(=N\c2ccc(Oc3ncccc3C(F)(F)F)cc2)n(Cc2ccc(Cl)cc2)c1=O)C(=O)O [Compound I-032]	11
CC(C)(Cn1c(=O)[nH]/c(=N\c2ccc(Oc3cc(Cl)ccn3)cc2)n(Cc2ccc(Cl)cc2)c1=O)C(=O)O [Compound I-086]	33
COC(=O)[C@H](C)[C@H](C)n1c(=O)[nH]/c(=N\c2ccc(Oc3cccc(F)n3)cc2)n(Cc2ccc(C)cc2)c1=O [Compound I-104]	5
CCc1[nH]c2ccc(/N=c3\[nH]c(=O)n([C@@H](C)[C@@H](C)C(=O)OC)c(=O)n3Cc3ccc(Cl)cc3)cc2c1C [Compound R-127]	90
CCn1c(=O)[nH]/c(=N\c2ccc(Oc3ccc(Cl)nc3C(=O)O)cc2)n(Cc2ccc(Cl)cc2)c1=O [Compound R-169]	304
CC1(C)OC[C@H](Cn2c(=O)[nH]/c(=N\c3ccc(Oc4ccccn4)cc3)n(Cc3ccc(Cl)cc3)c2=O)O1 [Compound R-234]	3
COC(=O)C(C)(C)Cn1c(=O)[nH]/c(=N\c2ccc(Oc3ccccn3)c(C)c2)n(Cc2ccc(Cl)cc2)c1=O [Compound I-225]	14
Cc1ccc(Cn2c(=O)n(CCCC(=O)O)c(=O)[nH]/c2=N\c2ccc(Oc3ncccc3F)cc2)cc1 [Compound R-277]	14
CC(C)Oc1ccc(/N=c2\[nH]c(=O)n([C@H]3C[C@H](C(=O)O)C3)c(=O)n2Cc2ccc(Cl)cc2)cc1Cl [Compound R-021]	15
C[C@@H](Cn1c(=O)[nH]/c(=N\c2ccc(Oc3cccnn3)cc2)n(Cc2ccc(Cl)cc2)c1=O)C(=O)O [Compound R-120]	8
CO[C@@H](Cn1c(=O)[nH]/c(=N\c2ccc(Oc3cccc(F)n3)cc2)n(Cc2ccc(Cl)cc2)c1=O)C(=O)O [Compound I-125]	5
COC(=O)[C@H](C)[C@H](C)n1c(=O)[nH]/c(=N\c2ccc(Oc3cnccn3)c(F)c2)n(Cc2ccc(Cl)cc2)c1=O [Compound R-122]	13
COc1cc(Oc2ccc(/N=c3\[nH]c(=O)n(C[C@H](C)C(=O)O)c(=O)n3Cc3ccc(Cl)cc3)cc2)ccn1 [Compound R-032]	4
O=C(Cn1c(=O)[nH]/c(=N\c2ccc(Oc3ccccn3)cc2)n(Cc2ccc(Cl)cc2)c1=O)NCC(F)(F)F [Compound R-243]	4
COC(=O)C(C)(C)Cn1c(=O)[nH]/c(=N\c2ccc(Oc3ccc(Cl)cn3)cc2)n(Cc2ccc(Cl)cc2)c1=O [Compound I-004]	14
CC(C)(Cn1c(=O)[nH]/c(=N\c2ccc(N3CCCCC3)c(F)c2)n(Cc2ccc(Cl)cc2)c1=O)C(=O)O [Compound R-147]	51
COC(=O)C(C)(C)Cn1c(=O)[nH]/c(=N\c2ccc(Oc3ccccn3)cc2)n(Cc2ccc(Cl)cc2)c1=O [Compound I-149]	5
COc1cccnc1Oc1ccc(/N=c2\[nH]c(=O)n(CC(C)(C)C(=O)O)c(=O)n2Cc2ccc(Cl)cc2)cc1 [Compound I-164]	29
C[C@@H](C(=O)O)[C@H](C)n1c(=O)[nH]/c(=N\c2ccc(Oc3ccccn3)cc2)n(Cc2ccc(Cl)cc2)c1=O [Compound I-147]	7
COC(=O)C[C@@H](C)n1c(=O)[nH]/c(=N\c2ccc(Oc3ccccn3)cc2)n(Cc2ccc(Cl)cc2)c1=O [Compound I-157]	5

SMILES	IC50 [nM]
CCc1oc2ccc(/N=c3\[nH]c(=O)n([C@H]4C[C@H](C(=O)O)C4)c(=O)n3Cc3ccc(Cl)cc3)cc2c1C [Compound R-023]	21
Cc1ccc(Cn2c(=O)n(CC(C)(C)C(=O)O)c(=O)[nH]/c2=N\c2ccc(Oc3ncc(C)s3)cc2)cc1 [Compound R-219]	11
COC(=O)[C@H](C)[C@H](C)n1c(=O)[nH]/c(=N\c2ccc(Oc3ccc(OC(F)F)cn3)cc2)n(Cc2ccc(Cl)cc2)c1=O [Compound I-071]	38
Cc1ccc(Cn2c(=O)n([C@@H](C)[C@@H](C)C(=O)O)c(=O)[nH]/c2=N\c2ccc(Oc3ncc(C)s3)cc2)cc1 [Compound R-217]	8
COC(=O)[C@@H](C)Cn1c(=O)[nH]/c(=N\c2ccc(Oc3ccc(F)cn3)cc2)n(Cc2ccc(CF)cc2)c1=O [Compound I-208]	12
Cc1ccnc(Oc2ccc(/N=c3\[nH]c(=O)n([C@@H](C)[C@@H](C)C(=O)O)c(=O)n3Cc3ccc(Cl)cc3)cc2)c1 [Compound I-111]	9
COC(=O)[C@H](Cn1c(=O)[nH]/c(=N\c2ccc(Oc3ccc(F)cn3)cc2)n(Cc2ccc(Cl)cc2)c1=O)OC [Compound I-121]	6
CCn1c(=O)[nH]/c(=N\c2ccc(O[C@H]3C[C@@H](C(=O)O)C3)cc2)n(Cc2ccc(Cl)cc2)c1=O [Compound R-063]	456
C[C@@H](Cn1c(=O)[nH]/c(=N\c2ccc(Oc3ccc4nccn4n3)cc2)n(Cc2ccc(Cl)cc2)c1=O)C(=O)O [Compound R-231]	5
COC(=O)[C@@H](C)Cn1c(=O)[nH]/c(=N\c2ccc(Oc3ncccc3F)cc2)n(Cc2ccc(C)cc2)c1=O [Compound I-052]	6
Cc1cc(/N=c2\[nH]c(=O)n(CCC(=O)O)c(=O)n2Cc2ccc(Cl)cc2)ccc1Oc1ccccn1 [Compound R-283]	28
O=c1[nH]/c(=N\c2ccc(Oc3ccccn3)cc2)n(Cc2ccc(Cl)cc2)c(=O)n1CCCO [Compound R-251, 1-(4-chlorobenzyl)-3-(3-hydroxypropyl)-6-[4-(2-pyridyloxy)phenylimino]-1,3,5-triazinane-2,4-dione]	5
CC(C)(Cn1c(=O)[nH]/c(=N\c2ccc(Oc3cc(Cl)ncn3)cc2)n(Cc2ccc(Cl)cc2)c1=O)C(=O)O [Compound R-092]	10
COC(=O)[C@H](C)[C@H](C)n1c(=O)[nH]/c(=N\c2ccc(Oc3ncccc3F)cc2)n(Cc2ccc(C)cc2)c1=O [Compound I-095]	9
COC(=O)[C@@H](C)Cn1c(=O)[nH]/c(=N\c2ccc(Oc3cccnn3)c(F)c2)n(Cc2ccc(Cl)cc2)c1=O [Compound R-033]	6
COC(=O)C(C)(C)Cn1c(=O)[nH]/c(=N\c2ccc(Oc3nc(C)ns3)cc2)n(Cc2ccc(Cl)cc2)c1=O [Compound R-137]	6
C[C@@H](Cn1c(=O)[nH]/c(=N\c2ccc(Oc3ncccc3F)cc2)n(Cc2ccc(F)cc2F)c1=O)C(=O)O [Compound I-027]	39
COC(=O)C(C)(C)Cn1c(=O)[nH]/c(=N\c2ccc(Oc3ncns3)cc2)n(Cc2ccc(Cl)cc2)c1=O [Compound R-136]	6
C[C@H](Cn1c(=O)[nH]/c(=N\c2ccc(Oc3ccccn3)cc2)n(Cc2ccc(Cl)cc2)c1=O)C(=O)O [Compound I-141]	14
COC(=O)[C@@H](C)Cn1c(=O)[nH]/c(=N\c2ccc(Oc3ncccc3C#N)cc2)n(Cc2ccc(Cl)cc2)c1=O [Compound I-045]	19
COC(=O)[C@@H](C)Cn1c(=O)[nH]/c(=N\c2ccc(Oc3ccnc(Cl)c3)cc2)n(Cc2ccc(Cl)cc2)c1=O [Compound R-086]	7
COc1ccc(Oc2ccc(/N=c3\[nH]c(=O)n(C[C@H](C)C(=O)O)c(=O)n3Cc3ccc(C)cc3)cc2)nc1 [Compound I-229]	6
